# From US20120289501A1, “Benzene-fused 6-membered oxygen-containing heterocyclic derivatives of bicyclic heteroaryls” (NOVARTIS AG, priority 2009, published 2012)
# Target: IGF1R (Homo sapiens, UniProt P08069)
# Experiment: Cellular IGF-1R assay: inhibition of IGF1R phosphorylation in transduced Hek293 cells, capture ELISA (MSD)
# Assay type: cell-based
# Set-up: Hek293 cells transduced with the corresponding receptors; expressed in transfected cells; host or cells: Hek293 (Hek293-IGF1R)
# Method in brief: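 Serum-starved Hek293 cells transduced with IGF1R or InsR were pre-incubated 1 h with 3-fold dilutions from 10 μM (0.1% DMSO), then stimulated 10 min with 1.0 ng/μL IGF or 5.0 ng/μL insulin. pTyr1135/1136 (pINSR Tyr1150/1151) was read by MSD capture ELISA, normalised to stimulated vs unstimulated window; IC50 from 4-parameter fit.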
# IGF1R, sequence (P08069 31-1367): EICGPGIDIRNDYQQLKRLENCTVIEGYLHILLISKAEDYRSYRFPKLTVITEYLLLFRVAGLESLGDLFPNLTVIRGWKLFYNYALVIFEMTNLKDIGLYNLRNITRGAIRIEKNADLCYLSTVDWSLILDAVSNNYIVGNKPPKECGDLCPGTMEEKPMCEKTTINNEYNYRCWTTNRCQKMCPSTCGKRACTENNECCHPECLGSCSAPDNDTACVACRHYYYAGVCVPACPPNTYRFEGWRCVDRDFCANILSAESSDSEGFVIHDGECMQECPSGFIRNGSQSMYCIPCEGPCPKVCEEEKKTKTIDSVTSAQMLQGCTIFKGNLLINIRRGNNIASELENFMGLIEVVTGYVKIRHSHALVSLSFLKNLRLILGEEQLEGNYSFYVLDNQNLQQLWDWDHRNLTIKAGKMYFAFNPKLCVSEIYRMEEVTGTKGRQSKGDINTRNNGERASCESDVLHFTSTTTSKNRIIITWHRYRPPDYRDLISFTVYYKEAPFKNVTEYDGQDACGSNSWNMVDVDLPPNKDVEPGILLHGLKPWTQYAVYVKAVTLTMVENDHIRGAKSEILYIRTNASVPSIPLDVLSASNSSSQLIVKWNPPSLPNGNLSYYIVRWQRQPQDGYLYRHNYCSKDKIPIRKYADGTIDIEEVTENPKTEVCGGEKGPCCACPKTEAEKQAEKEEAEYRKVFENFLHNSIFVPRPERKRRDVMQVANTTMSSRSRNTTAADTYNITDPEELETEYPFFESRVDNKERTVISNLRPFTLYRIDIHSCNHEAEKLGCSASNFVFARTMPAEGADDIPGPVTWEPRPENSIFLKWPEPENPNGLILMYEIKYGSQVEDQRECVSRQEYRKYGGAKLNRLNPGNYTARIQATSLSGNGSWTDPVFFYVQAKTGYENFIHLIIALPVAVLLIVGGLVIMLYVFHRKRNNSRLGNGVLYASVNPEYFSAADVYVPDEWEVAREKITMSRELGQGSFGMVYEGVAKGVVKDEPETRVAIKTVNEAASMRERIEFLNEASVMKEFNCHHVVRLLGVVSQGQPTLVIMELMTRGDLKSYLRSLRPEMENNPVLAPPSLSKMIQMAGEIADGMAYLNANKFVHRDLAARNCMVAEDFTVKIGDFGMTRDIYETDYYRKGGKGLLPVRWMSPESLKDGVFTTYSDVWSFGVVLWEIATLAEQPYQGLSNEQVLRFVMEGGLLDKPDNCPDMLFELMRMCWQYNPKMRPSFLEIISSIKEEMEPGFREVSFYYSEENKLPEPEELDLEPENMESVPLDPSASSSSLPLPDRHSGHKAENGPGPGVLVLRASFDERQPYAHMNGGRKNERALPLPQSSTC
row,IC50 [nM],Structure (SMILES)
1,22,"CC(=O)NC[C@H]1C[C@@H](n2cc(-c3ccc4c(c3)OC(c3ccccc3)CC4)c3c(N)ncnc32)C1 (mixture of isomers) [Example 16, (R,S)—N-{cis-3-[4-Amino-5-(2-phenyl-chroman-7-yl)-pyrrolo[2,3-d]pyrimidin-7-yl]-cyclobutylmethyl}-acetamide]"
2,9,"Nc1ncnc2c1c(-c1ccc3c(c1)OC(c1ccccc1)C=C3)cn2[C@H]1C[C@@H](CN2CCS(=O)(=O)CC2)C1 (mixture of isomers) [Example 21, (R,S)-7-[cis-3-(1,1-Dioxo-1-thiomorpholin-4-ylmethyl)-cyclobutyl]-5-(2-phenyl-2H-chromen-7-yl)-7H-pyrrolo[2,3-d]pyrimidin-4-ylamine]"
3,11,"CC(=O)N1CCN([C@H]2C[C@@H](n3cc(-c4ccc5c(c4)OC(c4ccccc4)CC5)c4c(N)ncnc43)C2)CC1 (relative stereo) [Example 38, 1-(4-{cis-3-[4-Amino-5-(2-phenyl-chroman-7-yl)-pyrrolo[2,3-d]pyrimidin-7-yl]-cyclobutyl}-piperazin-1-yl)-ethanone]"
4,27 to 106,"Nc1ncnc2c1c(-c1ccc3c(c1)OC(c1ccccc1)CC3)cn2C1CC(O)(CO)C1 (single isomer, unassigned) [Example 26]"
